This note sets out measurements from ChEMBL document CHEMBL5352402, “Discovery of novel non-nucleoside inhibitors with high potency and selectivity for DNA methyltransferase 3A” (Eur J Med Chem, 2022).

The target of assay [1] is T1, DNMT3A2/3L complex (Homo sapiens) (UniProt Q9Y6K1+Q9UJW3). The experiment in a line: Inhibition of N-terminal His-tagged human DNMT3A (623 to 912 residues)/N-terminal GST-tagged human DNMT3L (160 to 387 residues) co-expressed in baculovirus infected Sf9 cells assessed as DNA methylation using DNA oligonucleotide IDT-01 as substrate at 100 uM preincubated for 15 mins followed by substrate addition in presence of [3H]-SAM and measured after 4 hrs by radioactive methylation assay. The following applies: time 255.0 min.

Assay [2] addresses T1, DNMT3A2/3L complex (Homo sapiens). Kind of assay: Inhibition of N-terminal His-tagged human DNMT3A (623 to 912 residues)/N-terminal GST-tagged human DNMT3L (160 to 387 residues) co-expressed in baculovirus infected Sf9 cells assessed as DNA methylation using DNA oligonucleotide IDT-01 as substrate at 10 uM preincubated for 15 mins followed by substrate addition in presence of [3H]-SAM and measured after 4 hrs by radioactive methylation assay. The note with it: time 255.0 min.

T1 sequence (Q9UJW3 whole entry, looked up, the tested form may be a part): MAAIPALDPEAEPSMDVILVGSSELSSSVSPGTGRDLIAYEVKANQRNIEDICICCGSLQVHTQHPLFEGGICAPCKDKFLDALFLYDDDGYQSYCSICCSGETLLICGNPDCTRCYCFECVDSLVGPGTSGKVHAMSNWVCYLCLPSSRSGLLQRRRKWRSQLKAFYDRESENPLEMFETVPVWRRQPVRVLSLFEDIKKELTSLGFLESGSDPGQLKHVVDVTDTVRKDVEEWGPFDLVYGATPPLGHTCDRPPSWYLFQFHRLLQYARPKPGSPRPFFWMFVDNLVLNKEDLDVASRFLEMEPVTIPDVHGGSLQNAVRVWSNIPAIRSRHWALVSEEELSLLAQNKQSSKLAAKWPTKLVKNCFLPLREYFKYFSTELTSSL
T1 sequence (Q9Y6K1 whole entry, looked up, the tested form may be a part): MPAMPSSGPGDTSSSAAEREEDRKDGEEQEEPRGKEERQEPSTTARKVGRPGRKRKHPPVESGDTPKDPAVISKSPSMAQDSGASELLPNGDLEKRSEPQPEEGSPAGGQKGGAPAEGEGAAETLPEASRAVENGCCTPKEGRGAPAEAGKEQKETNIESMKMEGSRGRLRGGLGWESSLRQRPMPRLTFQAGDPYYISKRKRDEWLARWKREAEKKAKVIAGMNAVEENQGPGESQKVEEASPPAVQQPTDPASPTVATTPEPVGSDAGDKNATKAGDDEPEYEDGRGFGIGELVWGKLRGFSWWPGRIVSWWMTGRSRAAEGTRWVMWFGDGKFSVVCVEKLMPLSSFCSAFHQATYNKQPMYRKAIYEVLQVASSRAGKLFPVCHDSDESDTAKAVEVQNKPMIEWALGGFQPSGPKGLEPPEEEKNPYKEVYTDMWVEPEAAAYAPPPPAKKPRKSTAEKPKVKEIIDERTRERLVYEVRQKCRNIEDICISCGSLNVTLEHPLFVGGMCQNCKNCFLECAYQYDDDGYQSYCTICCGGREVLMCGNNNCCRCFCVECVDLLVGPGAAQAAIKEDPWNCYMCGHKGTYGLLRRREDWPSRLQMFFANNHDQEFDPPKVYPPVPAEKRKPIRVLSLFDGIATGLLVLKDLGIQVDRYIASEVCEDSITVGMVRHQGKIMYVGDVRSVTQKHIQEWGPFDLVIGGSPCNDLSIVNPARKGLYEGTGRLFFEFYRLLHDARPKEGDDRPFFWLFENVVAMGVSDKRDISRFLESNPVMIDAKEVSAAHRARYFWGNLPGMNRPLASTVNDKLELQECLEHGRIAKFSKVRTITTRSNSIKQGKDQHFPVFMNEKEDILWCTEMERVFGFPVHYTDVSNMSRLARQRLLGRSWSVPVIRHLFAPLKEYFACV

As to `Cc1oc2ncn(CCN3CCCCC3)c(=O)c2c1C(=O)Nc1ccc(C#N)cc1`, the inhibition in assay [1] is 14.3%; in assay [2], 25.4%.
For the compound `Cc1sc2ncn(CCCN(C)C)c(=O)c2c1C(=O)Nc1ccc(S(N)(=O)=O)nc1`, the inhibition worked out at 57.5% in assay [1] and 51.3% in assay [2].
Consider `Cc1oc2ncn(C(C)c3ccccc3)c(=O)c2c1C(=O)Nc1ccc(S(N)(=O)=O)nc1` (stereo unspecified), for which the inhibition in assay [1] worked out at 28.6%.
Consider `Cc1sc2ncn(CCCN(C)C)c(=O)c2c1C(=O)Nc1ccc(C#N)nc1`, for which the inhibition in assay [1] amounted to 37.8%; in assay [2], 28.9%.
Consider `Cc1oc2ncn(CCN3CCOCC3)c(=O)c2c1C(=O)Nc1ccc(C#N)cc1`, for which the inhibition in assay [1] amounted to 5.8%; in assay [2], 1%.
`Cc1oc2ncn(Cc3ccncc3)c(=O)c2c1C(=O)Nc1ccc(S(N)(=O)=O)nc1`: in assay [1], the inhibition was 18.1%.
Consider `Cc1oc2ncn(Cc3ccccc3)c(=O)c2c1C(=O)Nc1ccc(S(N)(=O)=O)nc1`, for which, in assay [1], the inhibition amounted to 29.5%.
On to `Cc1oc2ncn(CCCN3CCCC3)c(=O)c2c1C(=O)Nc1ccc(C#N)cc1`, for which the inhibition in assay [1] stood at 53.9%; in assay [2], 33.7%.
In the same order, the values of `Cc1oc2ncn(CCCN3CCOCC3)c(=O)c2c1C(=O)Nc1ccc(C#N)cc1` are 28.4% and 22.7%.
In the same order, the values of `Cc1oc2ncn(CCN3CCCC3)c(=O)c2c1C(=O)Nc1ccc(C#N)cc1` are 48.6% and 47.5%.
In the same order, the values of `Cc1oc2ncn(CCCN3CCOCC3)c(=O)c2c1C(=O)Nc1ccc(S(N)(=O)=O)nc1` are 54.2% and 36%.
Consider `Cc1oc2ncn(CCCN(C)C)c(=O)c2c1C(=O)Nc1ccc(C#N)cc1`, for which the inhibition stood at 36% in assay [1] and 36.4% in assay [2].
In the same order, the values of `Cc1oc2ncn(CCN(C)C)c(=O)c2c1C(=O)Nc1ccc(C#N)cc1` are 24% and 21.7%.
In the same order, the values of `Cc1oc2ncn(CCCN3CCCCC3)c(=O)c2c1C(=O)Nc1ccc(C#N)cc1` are 44% and 32.9%.
Consider `Cc1oc2ncn(CC3CCCO3)c(=O)c2c1C(=O)Nc1ccc(S(N)(=O)=O)nc1` (stereo unspecified), for which the inhibition in assay [1] was determined as 29.5%.

Broadly, the inhibition is how much of the control response was suppressed.
